Experimental data: patent US11427549B2, “Pyrimidinyloxy benzo-fused compounds as herbicides” (FMC Corporation, priority 2017, dated 2022)

What was measured:
rice (Oryza sativa) = experiment: Test B flooded paddy test, rice; conditions: Oryza sativa, read-out: Plant response rating, Rice (0 to 100 scale, 0 is no effect, 100 is complete control)
[1] = system: ryegrass, Italian (Italian ryegrass, Lolium multiflorum); experiment: Test A postemergence, ryegrass, Italian; assay type: in vivo; conditions: Lolium multiflorum, post-emergence, 240 h, 0 to 100 scale (0 no effect, 100 complete control), read-out: Plant response rating, Ryegrass, Italian; for pest or weed control at 31 g/ha: 31 g ai/ha; for pest or weed control at 125 g/ha: 125 g ai/ha
[2] = system: ducksalad (Heteranthera limosa); experiment: Test B flooded paddy test, ducksalad; conditions: Heteranthera limosa, read-out: Plant response rating, Ducksalad (0 to 100 scale, 0 is no effect, 100 is complete control)
[3] = system: barnyardgrass (Echinochloa crus-galli); experiment: Test B flooded paddy test, barnyardgrass; conditions: Echinochloa crus-galli, read-out: Plant response rating, Barnyardgrass (0 to 100 scale, 0 is no effect, 100 is complete control)
[4] = system: ragweed (common ragweed, Ambrosia elatior); experiment: Test A postemergence, ragweed; assay type: in vivo; conditions: Ambrosia artemisiifolia, post-emergence, 240 h, 0 to 100 scale (0 no effect, 100 complete control), read-out: Plant response rating, Ragweed; for pest or weed control at 31 g/ha: 31 g ai/ha; for pest or weed control at 125 g/ha: 125 g ai/ha
[5] = system: blackgrass (Alopecurus myosuroides); experiment: Test A postemergence, blackgrass; assay type: in vivo; conditions: Alopecurus myosuroides, post-emergence, 240 h, 0 to 100 scale (0 no effect, 100 complete control), read-out: Plant response rating, Blackgrass; for pest or weed control at 31 g/ha: 31 g ai/ha; for pest or weed control at 125 g/ha: 125 g ai/ha
[6] = system: ryegrass, Italian (Italian ryegrass, Lolium multiflorum); experiment: Test A preemergence, ryegrass, Italian; assay type: in vivo; conditions: Lolium multiflorum, pre-emergence, 240 h, 0 to 100 scale (0 no effect, 100 complete control), read-out: Plant response rating, Ryegrass, Italian; for pest or weed control at 31 g/ha: 31 g ai/ha; for pest or weed control at 125 g/ha: 125 g ai/ha
corn (Zea mays) = experiment: Test A postemergence, corn; assay type: in vivo; conditions: Zea mays, post-emergence, 240 h, 0 to 100 scale (0 no effect, 100 complete control); for Corn plant response rating (crop injury, 0 = no effect, 100 = complete kill) at 31 g/ha: 31 g ai/ha; for Corn plant response rating (crop injury, 0 = no effect, 100 = complete kill) at 125 g/ha: 125 g ai/ha
kochia (Kochia scoparia) [7] = experiment: Test A preemergence, kochia; assay type: in vivo; conditions: Bassia scoparia, pre-emergence, 240 h, 0 to 100 scale (0 no effect, 100 complete control), read-out: Plant response rating, Kochia; for pest or weed control at 31 g/ha: 31 g ai/ha; for pest or weed control at 125 g/ha: 125 g ai/ha
[8] = system: wheat (Triticum aestivum); experiment: Test A postemergence, wheat; assay type: in vivo; conditions: Triticum aestivum, post-emergence, 240 h, 0 to 100 scale (0 no effect, 100 complete control), read-out: Plant response rating, Wheat; for plant injury at 31 g/ha: 31 g ai/ha; for plant injury at 125 g/ha: 125 g ai/ha
kochia (Kochia scoparia) [9] = experiment: Test A postemergence, kochia; assay type: in vivo; conditions: Bassia scoparia, post-emergence, 240 h, 0 to 100 scale (0 no effect, 100 complete control), read-out: Plant response rating, Kochia; for pest or weed control at 31 g/ha: 31 g ai/ha; for pest or weed control at 125 g/ha: 125 g ai/ha
[10] = system: pigweed (Amaranthus retroflexus); experiment: Test A postemergence, pigweed; assay type: in vivo; conditions: Amaranthus retroflexus, post-emergence, 240 h, 0 to 100 scale (0 no effect, 100 complete control), read-out: Plant response rating, Pigweed; for pest or weed control at 31 g/ha: 31 g ai/ha; for pest or weed control at 125 g/ha: 125 g ai/ha
[11] = system: ragweed (common ragweed, Ambrosia elatior); experiment: Test A preemergence, ragweed; assay type: in vivo; conditions: Ambrosia artemisiifolia, pre-emergence, 240 h, 0 to 100 scale (0 no effect, 100 complete control), read-out: Plant response rating, Ragweed; for pest or weed control at 31 g/ha: 31 g ai/ha; for pest or weed control at 125 g/ha: 125 g ai/ha
[12] = system: barnyardgrass (Echinochloa crus-galli); experiment: Test A preemergence, barnyardgrass; assay type: in vivo; conditions: Echinochloa crus-galli, pre-emergence, 240 h, 0 to 100 scale (0 no effect, 100 complete control), read-out: Plant response rating, Barnyardgrass; for pest or weed control at 31 g/ha: 31 g ai/ha; for pest or weed control at 125 g/ha: 125 g ai/ha
[13] = system: pigweed (Amaranthus retroflexus); experiment: Test A preemergence, pigweed; assay type: in vivo; conditions: Amaranthus retroflexus, pre-emergence, 240 h, 0 to 100 scale (0 no effect, 100 complete control), read-out: Plant response rating, Pigweed; for pest or weed control at 31 g/ha: 31 g ai/ha; for pest or weed control at 125 g/ha: 125 g ai/ha
[14] = system: galium (catchweed bedstraw, Galium aparine); experiment: Test A postemergence, galium; assay type: in vivo; conditions: Galium, post-emergence, 240 h, 0 to 100 scale (0 no effect, 100 complete control), read-out: Plant response rating, Galium; for pest or weed control at 31 g/ha: 31 g ai/ha; for pest or weed control at 125 g/ha: 125 g ai/ha
[15] = system: barnyardgrass (Echinochloa crus-galli); experiment: Test A postemergence, barnyardgrass; assay type: in vivo; conditions: Echinochloa crus-galli, post-emergence, 240 h, 0 to 100 scale (0 no effect, 100 complete control), read-out: Plant response rating, Barnyardgrass; for pest or weed control at 31 g/ha: 31 g ai/ha; for pest or weed control at 125 g/ha: 125 g ai/ha

Row | Compound | plant injury at 250 g/ha (rice (Oryza sativa)) | pest or weed control at 31 g/ha [1] | pest or weed control at 125 g/ha [1] | pest or weed control at 250 g/ha [2] | pest or weed control at 250 g/ha [3] | pest or weed control at 31 g/ha [4] | pest or weed control at 125 g/ha [4] | pest or weed control at 31 g/ha [5] | pest or weed control at 125 g/ha [5] | pest or weed control at 31 g/ha [6] | pest or weed control at 125 g/ha [6] | Corn plant response rating (crop injury, 0 = no effect, 100 = complete kill) at 31 g/ha (corn (Zea mays)) | Corn plant response rating (crop injury, 0 = no effect, 100 = complete kill) at 125 g/ha (corn (Zea mays)) | pest or weed control at 31 g/ha (kochia (Kochia scoparia) [7]) | pest or weed control at 125 g/ha (kochia (Kochia scoparia) [7]) | plant injury at 31 g/ha [8] | plant injury at 125 g/ha [8] | pest or weed control at 31 g/ha (kochia (Kochia scoparia) [9]) | pest or weed control at 125 g/ha (kochia (Kochia scoparia) [9]) | pest or weed control at 31 g/ha [10] | also measured
1 | O=C1O[C@@H](CCC(F)(F)F)c2c(Oc3ncc(Cl)cn3)cccc21 [Compound 18, (3S)-4-[(5-Chloro-2-pyrimidinyl)oxy]-3-(3,3,3-trifluoropropyl)-1(3H)-isobenzofuranone] | 0% | 0% | 0% | 0% | 0% | 0% | 0% | 0% | 0% | 0% | 0% | 0% | 10% | 0% | 0% | 0% | 0% | 0% | 10% | 10% | pest or weed control at 125 g/ha [10]: 20%; pest or weed control at 31 g/ha [11]: 0%; pest or weed control at 125 g/ha [11]: 0%; pest or weed control at 31 g/ha [12]: 0%; pest or weed control at 125 g/ha [12]: 0%; pest or weed control at 31 g/ha [13]: 0%; pest or weed control at 125 g/ha [13]: 0%; pest or weed control at 31 g/ha [14]: 0%; pest or weed control at 125 g/ha [14]: 10%; pest or weed control at 31 g/ha [15]: 0%; pest or weed control at 125 g/ha [15]: 0%
2 | O=C1O[C@H](CCC(F)(F)F)c2c(Oc3ncc(Cl)cn3)cccc21 [Compound 19, (3R)-4-[(5-Chloro-2-pyrimidinyl)oxy]-3-(3,3,3-trifluoropropyl)-1(3H)-isobenzofuranone] | 50% | 80% | 100% | 100% | 60% | 30% | 70% | 100% | 100% | 10% | 90% | 40% | 70% | 90% | 100% | 20% | 100% | 80% | 100% | 100% | pest or weed control at 125 g/ha [10]: 100%; pest or weed control at 31 g/ha [11]: 0%; pest or weed control at 125 g/ha [11]: 60%; pest or weed control at 31 g/ha [12]: 80%; pest or weed control at 125 g/ha [12]: 100%; pest or weed control at 31 g/ha [13]: 100%; pest or weed control at 125 g/ha [13]: 100%; pest or weed control at 31 g/ha [14]: 90%; pest or weed control at 125 g/ha [14]: 100%; pest or weed control at 31 g/ha [15]: 50%; pest or weed control at 125 g/ha [15]: 100%
3 | FC(F)(F)CC[C@H]1OCc2cccc(Oc3ncc(Cl)cn3)c21 [Compound 20, 5-Chloro-2-[[(3R)-1,3-dihydro-3-(3,3,3-trifluoropropyl)-4-isobenzofuranyl]oxy]-pyrimidine] | 30% | 30% | 80% | 100% | 90% | 30% | 70% | 80% | 100% | 10% | 60% | 30% | 50% | 100% | 100% | 20% | 90% | 90% | 100% | 100% | pest or weed control at 125 g/ha [10]: 100%; pest or weed control at 31 g/ha [11]: 30%; pest or weed control at 125 g/ha [11]: 100%; pest or weed control at 31 g/ha [12]: 70%; pest or weed control at 125 g/ha [12]: 100%; pest or weed control at 31 g/ha [13]: 100%; pest or weed control at 125 g/ha [13]: 100%; pest or weed control at 31 g/ha [14]: 90%; pest or weed control at 125 g/ha [14]: 100%; pest or weed control at 31 g/ha [15]: 40%; pest or weed control at 125 g/ha [15]: 100%
